System: Pyricularia oryzae
Test: Antimicrobial activity against Pyricularia oryzae P-2b assessed as drug concentration causing minimum morphological deformation
Type: functional

With `O=c1[nH]cc(F)c(=O)[nH]1` [FLUOROURACIL] the Activity was “<=5 ug ml-1”.
